Laboratory results as given in paper PMC10609429, “Crystal Structure and Intermolecular Energy for Some Nandrolone Esters” (Molecules, 2023).
In brackets after ≈: the same amount, converted by molar mass. Several values for one entry are separate records, joined by “and”; a condition that tells them apart may be missing. Identical values can stand only once. Like-named read-outs stand apart in the source and are kept apart here.

Legend:
[1] = Solubility evaluation of nandrolone esters in oil / benzyl benzoate / benzyl alcohol mixtures; assay type: physicochemical; conditions: 24 °C, oil or lipid, thermodynamic from solid
Description: From a pharmaceutical standpoint, the solubility of esterified agents (mg/mL) plays an important role in drug development and delivery. In this context, the solubilities were evaluated in multiple mixtures based on various organic oils: medium-chain triglyceride (MCT), apricot, grape seed oil (GSO) and cottonseed oil. Each solution contains a mixture of benzyl alcohol, benzyl benzoate and oil with a volumetric ratio of 2% benzyl alcohol, 20% benzyl benzoate and the rest of 78% oil.
Solubility evaluation was accomplished at a room temperature of 24 °C in successive additions of small quantities of raw materials (a few mg each step). The mixtures were stirred for up to several hours in order to achieve a completely dissolved solution. In the case that an undissolved excess of raw materials remained in the suspension, small quantities of mixtures were added until the solutions became perfectly homogenous and clear. Two measurements were performed in order to attain a good accuracy; their average was further discussed.

[2] = set-up: method as in PMID 28522428; conditions: two polymorphs, respectively; ambient temperature of 20 °C; mixtures of castor oil; cited from earlier work
[3] = set-up: method as in PMID 817322; conditions: oral vs subcutaneous; cited from earlier work
[4] = unesterified nandrolone; cited from earlier work
[5] = analogue esters of testosterone; cited from earlier work
[6] = average over the four oil mixtures (apricot, GSO, MCT, cottonseed), read-out: Solubility (average)
[7] = medium-chain triglyceride mixture: 2% benzyl alcohol, 20% benzyl benzoate, 78% oil (v/v), room temperature 24 °C, average of two measurements, read-out: Solubility, MCT
[8] = apricot oil / benzyl benzoate / benzyl alcohol mixture, apricot oil mixture: 2% benzyl alcohol, 20% benzyl benzoate, 78% oil (v/v), room temperature 24 °C, average of two measurements, read-out: Solubility, APRICOT
[9] = cottonseed oil / benzyl benzoate / benzyl alcohol mixture, cottonseed oil mixture: 2% benzyl alcohol, 20% benzyl benzoate, 78% oil (v/v), room temperature 24 °C, average of two measurements, read-out: Solubility, COTTON
[10] = grape seed oil / benzyl benzoate / benzyl alcohol mixture, grape seed oil mixture: 2% benzyl alcohol, 20% benzyl benzoate, 78% oil (v/v), room temperature 24 °C, average of two measurements, read-out: Solubility, GSO

C[C@]12CC[C@H]3[C@@H](CCC4=CC(=O)CC[C@@H]43)[C@@H]1CC[C@@H]2OC(=O)CCc1ccccc1 [NPhp, Nandrolone phenylpropionate]
solubility [1, 6]: ~138 mg/mL (≈ 339 mM)
solubility [1, 7]: 148 mg/mL (≈ 365 mM)
solubility [1, 8]: 127 mg/mL (≈ 313 mM)
solubility [1, 9]: 140 mg/mL (≈ 345 mM)
solubility [1, 10]: 137 mg/mL (≈ 336 mM)

CCC(=O)OC1CCC2C3CCC4=CC(=O)CCC4C3CCC12C (centres unmarked) [NPro, Nandrolone propionate]
solubility [1, 6]: ~188 mg/mL (≈ 569 mM)
solubility [1, 7]: 187 mg/mL (≈ 566 mM)
solubility [1, 8]: 181 mg/mL (≈ 548 mM)
solubility [1, 9]: 180 mg/mL (≈ 544 mM)
solubility [1, 10]: 204 mg/mL (≈ 619 mM)

CCCCCCCCCCC(=O)OC1CCC2C3CCC4=CC(=O)CCC4C3CCC12C (centres unmarked) [NUnd, Nandrolone undecanoate]
solubility [1, 6]: ~192 mg/mL (≈ 433 mM)
solubility [1, 7]: 211 mg/mL (≈ 478 mM)
solubility [1, 8]: 183 mg/mL (≈ 413 mM)
solubility [1, 9]: 199 mg/mL (≈ 450 mM)
solubility [1, 10]: 173 mg/mL (≈ 391 mM)

CCCCCC(=O)O[C@]1(C(C)=O)CC[C@H]2[C@@H]3CCC4=CC(=O)CC[C@]4(C)[C@H]3CC[C@@]21C [hydroxyprogesterone caproate]
solubility [2]: 278 mg/mL and 301 mg/mL

C[C@]12CC[C@H]3[C@@H](CCC4=CC(=O)CC[C@@H]43)[C@@H]1CC[C@@H]2O [nandrolone, Estr-4-en-17β-ol-3-one]
Potency of the oral form compared with subcutaneous administration [3]: one-tenth
Half-life [4]: a few hours

C[C@]12CC[C@H]3[C@@H](CCC4=CC(=O)CC[C@@]43C)[C@@H]1CC[C@@H]2OC(=O)CCC1CCCC1 [testosterone cypionate]
solubility [5]: 255 mg/mL (≈ 618 mM)

CCCCCCCCCCC(=O)O[C@H]1CC[C@H]2[C@@H]3CCC4=CC(=O)CC[C@]4(C)[C@H]3CC[C@]12C [undecanoate ester of testosterone]
solubility [5]: 197 mg/mL (≈ 431 mM)
